Results taken from patent US20250289813A1, “CDK INHIBITORS, PHARMACEUTICAL COMPOSITIONS, AND THERAPEUTIC APPLICATIONS” (ONQUALITY PHARMACEUTICALS CHINA LTD., priority 2022, published 2025).

What was measured:
[1] = target: CDK4/cyclin D1 (Homo sapiens (Human), UniProt P11802); assay: CDK4 Caliper Mobility Shift assay; format: biochemical
In short: (§1)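 Caliper mobility-shift kinase assay with FAM-labeled peptide substrate. CDK4/cyclin D1 (15 nM) ran in 20 mM HEPES pH 7.5, 0.01% Triton X-100 at […] ATP; CDK6/cyclin D1 (7.5 nM) in 50 mM HEPES pH 7.5, 0.0015% BRIJ-35 at […] ATP. Compound was pre-incubated 10 min, reactions ran at 28 °C, and IC50 came from percent conversion inhibition.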

[2] = target: CDK6/cyclin D1 (Homo sapiens (Human), UniProt Q00534); assay: CDK6 Caliper Mobility Shift assay; format: biochemical
CDK6/cyclin D1, sequence (Q00534 whole entry): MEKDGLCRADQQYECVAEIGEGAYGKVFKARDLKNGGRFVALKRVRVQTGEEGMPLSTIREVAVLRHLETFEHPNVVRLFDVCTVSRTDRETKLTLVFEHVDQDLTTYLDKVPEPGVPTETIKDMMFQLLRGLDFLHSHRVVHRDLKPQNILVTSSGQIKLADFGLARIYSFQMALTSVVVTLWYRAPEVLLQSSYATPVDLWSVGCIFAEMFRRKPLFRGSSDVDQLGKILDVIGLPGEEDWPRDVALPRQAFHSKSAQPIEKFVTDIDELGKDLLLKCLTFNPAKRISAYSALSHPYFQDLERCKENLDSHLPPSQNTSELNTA
CDK6/cyclin D1, sequence (P24385 whole entry partner): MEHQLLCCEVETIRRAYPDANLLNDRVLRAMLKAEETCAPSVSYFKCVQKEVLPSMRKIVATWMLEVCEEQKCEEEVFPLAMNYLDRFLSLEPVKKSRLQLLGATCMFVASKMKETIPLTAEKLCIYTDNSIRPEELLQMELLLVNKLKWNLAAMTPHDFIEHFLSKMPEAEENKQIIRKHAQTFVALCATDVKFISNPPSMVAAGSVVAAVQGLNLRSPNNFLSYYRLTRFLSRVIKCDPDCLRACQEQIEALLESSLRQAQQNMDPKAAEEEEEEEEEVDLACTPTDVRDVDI
In short: as §1

[3] = system: MCF-7 human breast cancer cells; assay: CELLTITER-GLO luminescent cell viability assay; format: cell-based; conditions: MCF7, 192 h, MCF-7 cells, 8 days, read-out: EC50 (Effect on Cell Viability)
In short: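 MCF-7 cells grown in EMEM with 10% FBS and insulin, seeded at 3,000 cells/well and left to adhere overnight. Compound exposure lasted 8 days at 37 °C; viability was read by CellTiter-Glo luminescence.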

[4] = system: COLO205 human colon cancer cells; assay: CASPASE-GLO 3/7 apoptosis assay (protection against chemotherapy drug induced cytotoxicity); format: cell-based
Description: The CASPASE-GLO 3/7 apoptosis assay was used to evaluate the protective effect of a compound on the cytotoxicity induced by a chemotherapy drug. The apoptosis assay was carried out using COLO205 human colon cancer cells. The cells were grown at 37° C. in a 5% CO2 humidified incubator in PRIM1640 supplemented with 10% FBS and 0.01 mg/mL bovine insulin. The cells were seeded at 4,000 cells/well in a 96-well plate. After incubated overnight, the cells were pretreated with a compound at predetermined concentrations or a vehicle for 16 h, followed by addition of a chemotherapy drug. After incubated for another 48 h, the CASPASE-GLO 3/7 reagent (100 μL/well) was added. The cells were mixed on an orbital shaker for 10 min and incubated at room temperature for 2 h. The 96-well plate was read with an ENVISION reader.

[5] = system: BALB/c mice; assay: 5-FU-induced diarrhea mouse model; format: in vivo; conditions: day 7
Description: A compound was evaluated in a 5-FU-induced diarrhea mouse model for its protective effect on the cytotoxicity induced by the chemotherapy drug 5-FU. On day 0, BALB/c mice (20-25 g, 7-8 weeks of age) were randomly divided into 3 groups (vehicle, 5-FU, and compound treatment) with 10 mice in each group. In the vehicle group, the mice were administered orally with the same medium in the same amount as used in the treatment group for the compound and then injected with the same medium in the same amount as used in the 5-FU group. In the 5-FU group, the mice were administered orally with the same medium in the same amount as used in the treatment group for the compound and then injected with 5-FU (175 mg/kg). In the treatment group, the mice were administrated orally with the compound and then injected with 5-FU (175 mg/kg). The compound was formulated with a 0.5% CMC solution.
(§2) On day 7, the diarrhea grade of each mouse was determined according to the method described in Kurita et al., Cancer Chemother. Pharmacol. 2000, 46, 211-20, the disclosure of which is incorporated herein by reference in its entirety. Diarrhea remission rates were calculated using the formula of Diarrhea remission rate (%)=(diarrhea grade in 5-FU group—diarrhea grade in treatment group)/diarrhea grade in 5-FU group×100%.

[6] = system: BALB/c mice; assay: Irinotecan-induced diarrhea/constipation mouse model; format: in vivo; conditions: Day 7
Description: A compound was evaluated in an irinotecan-induced diarrhea/constipation mouse model for its protective effect on the cytotoxicity induced by a chemotherapy drug. On day 0, BALB/c mice (20-25 g, 7-8 weeks of age) were randomly divided into 3 groups (vehicle, irinotecan, and compound treatment) with 10 mice in each group. In the vehicle group, the mice were administered orally with the same medium in the same amount as used in the treatment group for the compound and then injected with the same medium in the same amount as used in the irinotecan group. In the irinotecan group, the mice were administered orally with the same medium in the same amount as used in the treatment group for the compound and then injected with irinotecan (240 mg/kg). In the treatment group, the mice were administrated orally with the compound and then injected with irinotecan (240 mg/kg). The compound was formulated with a 0.5% CMC solution. […]
as §2, with “On Day” for “On day”, “entirety. The diarrhea” for “entirety. Diarrhea”, “[…]−diarrhea” for “5-FU group—diarrhea”

[7] = compound 2 μM, Irinotecan (20 μM)
[8] = compound 20 μM, Irinotecan (20 μM)

CDK4/cyclin D1, sequence (P11802 whole entry): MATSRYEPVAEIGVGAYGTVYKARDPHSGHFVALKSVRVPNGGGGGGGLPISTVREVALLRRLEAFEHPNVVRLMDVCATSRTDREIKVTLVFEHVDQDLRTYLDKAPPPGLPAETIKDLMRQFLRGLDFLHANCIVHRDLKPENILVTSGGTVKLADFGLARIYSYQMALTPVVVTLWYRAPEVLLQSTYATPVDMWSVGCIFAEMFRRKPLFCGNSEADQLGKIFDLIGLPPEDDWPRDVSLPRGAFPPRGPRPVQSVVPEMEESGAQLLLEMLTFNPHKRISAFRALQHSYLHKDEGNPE
CDK4/cyclin D1, sequence (P24385 whole entry partner): as the sequence (P24385 whole entry partner) above

Compound | IC50 [1] | IC50 [2] | EC50 [3] | RPR (relative protection rate) [4, 7] | RPR (relative protection rate) [4, 8] | RPR (relative protection rate) ([4]; compound 0.1 μM, 5-Fu (10 μM)) | RPR (relative protection rate) ([4]; compound 1 μM, 5-Fu (10 μM)) | RPR (relative protection rate) ([4]; compound 10 μM, 5-Fu (10 μM)) | further results
CC(=O)NCCOC(=O)NS(=O)(=O)N1CCN(c2ccc(Nc3ncc4c(C)c(C(C)=O)c(=O)n(C5CCCC5)c4n3)nc2)CC1 [Compound A15, 2-Acetamidoethyl ((4-(6-((6-acetyl-8-cyclopentyl-5-methyl-7-oxo-7,8-dihydropyrido[2,3-d]pyrimidin-2-yl)amino)pyridin-3-yl)piperazin-1-yl)sulfonyl)carbamate] | 0.2 to 0.5 µM | ≤ 0.2 µM | 1 to 10 µM |  |  | 28% | 84% | 71% | Remission Rate (diarrhea remission rate) ([6]; 10 mg/kg oral, 4 h before and 8 h after irinotecan (240 mg/kg)): 40%; Remission Rate (diarrhea remission rate) ([6]; 50 mg/kg oral, 4 h before and 8 h after irinotecan (240 mg/kg)): 60%
CC(=O)c1c(C)c2cnc(Nc3ccc(N4CCN(S(=O)(=O)NC(=O)OCCO)CC4)cn3)nc2n(C2CCCC2)c1=O [Compound A1, 2-hydroxyethyl ((4-(6-((6-acetyl-8-cyclopentyl-5-methyl-7-oxo-7,8-dihydropyrido[2,3-d]pyrimidin-2-yl)amino)pyridin-3-yl)piperazin-1-yl)sulfonyl)carbamate] | ≤ 0.2 µM | ≤ 0.2 µM | > 10 µM |  |  | 13% | 82% | 68% | RPR (relative protection rate) ([4]; compound 5 μM, 5-Fu (10 μM)): 90%; RPR (relative protection rate) ([4]; compound 100 μM, 5-Fu (10 μM)): 11%; Remission Rate (diarrhea remission rate) ([6]; 5 mg/kg oral, 4 h before and 8 h after irinotecan (240 mg/kg)): 50%; Remission Rate (diarrhea remission rate) ([6]; 25 mg/kg oral, 4 h before and 8 h after irinotecan (240 mg/kg)): 70%; Remission Rate (diarrhea remission rate) ([6]; 100 mg/kg oral, 4 h before and 8 h after irinotecan (240 mg/kg)): 20%

Continued, in another order:

IC50 [1] | IC50 [2] | EC50 [3] | Compound | RPR (relative protection rate) [4, 7] | RPR (relative protection rate) [4, 8] | RPR (relative protection rate) ([4]; compound 0.1 μM, 5-Fu (10 μM)) | RPR (relative protection rate) ([4]; compound 1 μM, 5-Fu (10 μM)) | RPR (relative protection rate) ([4]; compound 10 μM, 5-Fu (10 μM)) | further results
≤ 0.2 µM | ≤ 0.2 µM | 1 to 10 µM | CCC(=O)NS(=O)(=O)N1CCN(c2ccc(Nc3ncc4c(C)c(C(C)=O)c(=O)n(C5CCCC5)c4n3)nc2)CC1 [Compound A35, N-((4-(6-((6-Acetyl-8-cyclopentyl-5-methyl-7-oxo-7,8-dihydropyrido[2,3-d]-pyrimidin-2-yl)amino)pyridin-3-yl)piperazin-1-yl)sulfonyl)propionamide] | 83% | 81% |  |  |  | Remission Rate (diarrhea remission rate) ([5]; 5 mg/kg oral, 12 h before 5-FU (175 mg/kg)): 40%; Remission Rate (diarrhea remission rate) ([5]; 25 mg/kg oral, 12 h before 5-FU (175 mg/kg)): 50%; Remission Rate (diarrhea remission rate) ([6]; 10 mg/kg oral, 6 h before and 6 h after irinotecan (240 mg/kg)): 50%; Remission Rate (diarrhea remission rate) ([6]; 100 mg/kg oral, 6 h before and 6 h after irinotecan (240 mg/kg)): 70%
≤ 0.2 µM | ≤ 0.2 µM | ≤ 1 µM | CC(=O)c1c(C)c2cnc(Nc3ccc(N4CCN(S(=O)(=O)NC(=O)[C@H](C)N)CC4)cn3)nc2n(C2CCCC2)c1=O [Compound A6, (S)—N-((4-(6-((6-acetyl-8-cyclopentyl-5-methyl-7-oxo-7,8-dihydropyrido[2,3-d]-pyrimidin-2-yl)amino)pyridin-3-yl)piperazin-1-yl)sulfonyl)-2-aminopropanamide] | 89% | 73% |  |  |  | RPR (relative protection rate) ([4]; compound 0.01 μM, Irinotecan (20 μM)): 20%; RPR (relative protection rate) ([4]; compound 0.2 μM, Irinotecan (20 μM)): 36%; RPR (relative protection rate) ([4]; compound 50 μM, Irinotecan (20 μM)): 57%; Remission Rate (diarrhea remission rate) ([5]; 5 mg/kg oral, 8 h before and 4 h after 5-FU (175 mg/kg)): 20%; Remission Rate (diarrhea remission rate) ([5]; 50 mg/kg oral, 8 h before and 4 h after 5-FU (175 mg/kg)): 66%; Remission Rate (diarrhea remission rate) ([5]; 100 mg/kg oral, 8 h before and 4 h after 5-FU (175 mg/kg)): 33%
≤ 0.2 µM | ≤ 0.2 µM |  | CCS(=O)(=O)N1CCN(c2ccc(Nc3ncc4c(C)c(C(C)=O)c(=O)n(C5CCCC5)c4n3)nc2)CC1 [Compound C2, 6-Acetyl-8-cyclopentyl-2-((5-(4-(ethylsulfonyl)piperazin-1-yl)pyridin-2-yl)-amino)-5-methylpyrido[2,3-d]pyrimidin-7(81)-one] |  |  |  |  |  | RPR (relative protection rate) ([4]; compound 0.2 μM, 5-Fu (10 μM)): 59%; RPR (relative protection rate) ([4]; compound 2 μM, 5-Fu (10 μM)): 79%; RPR (relative protection rate) ([4]; compound 20 μM, 5-Fu (10 μM)): 87%; Remission Rate (diarrhea remission rate) ([5]; 75 mg/kg oral, 8 h before and 4 h after 5-FU (175 mg/kg)): 50%; Remission Rate (diarrhea remission rate) ([6]; 75 mg/kg oral, 4 h before and 8 h after irinotecan (240 mg/kg)): 30%
